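How tested: cells in 96-well plates exposed to compound for 48 hours at five concentrations. TGI: total growth inhibition.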
Experiments:
Experiment in all cases: NCI-60 cell line screen, 48 h
[1] = system: U251 CNS
[2] = system: HOP-92 NSCLC
[3] = system: LOX IMVI melanoma
[4] = system: EKVX NSCLC
[5] = system: SK-MEL-5 melanoma
[6] = system: MALME-3M melanoma
[7] = system: SK-MEL-2 melanoma
[8] = system: HCC-2998 colon
[9] = system: SF-268 CNS
[10] = system: OVCAR-3 ovarian
[11] = system: DU-145 prostate
[12] = system: A549 NSCLC
[13] = system: IGROV1 ovarian
[14] = system: A498 renal
[15] = system: UO-31 renal
[16] = system: HOP-62 NSCLC
[17] = system: UACC-62 melanoma
[18] = system: SW-620 colon
[19] = system: NCI-H522 lung
[20] = system: COLO 205 colon

SMILES	TGI [1] [µM]	TGI [2] [µM]	TGI [3] [µM]	TGI [4] [µM]	TGI [5] [µM]	TGI [6] [µM]	TGI [7] [µM]	TGI [8] [µM]	TGI [9] [µM]	TGI [10] [µM]	TGI [11] [µM]	TGI [12] [µM]	TGI [13] [µM]	TGI [14] [µM]	TGI [15] [µM]	TGI [16] [µM]	TGI [17] [µM]	TGI [18] [µM]	TGI [19] [µM]	TGI [20] [µM]
CC1=C(O)C(=O)C=C2C1=CC=C1[C@@]2(C)CC[C@@]2(C)C3C[C@@H](C)C(=O)[C@@H](O)[C@]3(C)CC[C@]12C (some centres undefined)	2.88	3.87	3.02	4.12	12.7	3.97	9.85	9.65	11	3.6	3.38	28.5	3.28	12.4	3.53	11.6	3.28	2.32	2.34	3.05
CC(C)(C)C(=O)/C=C(\OB(F)F)C(C)(C)C	> 100	> 100	> 100	> 100	> 100	> 100	> 100	> 100	> 100	> 100	> 100	> 100	> 100	> 100	> 100	> 100		> 100	> 100	> 100
Fc1ccc(Nc2nc(Cl)c3[nH]cnc3n2)cc1Cl	> 100	> 100	> 100	> 100	> 100	> 100	> 100	> 100	> 100	> 100	> 100	> 100	> 100	> 100	33.5	> 100	> 100	> 100	> 100	> 100
NC(N)=N/N=C\c1c(-c2cccc([N+](=O)[O-])c2)nc2sccn12		27.6		56.2	36.1	51.4	6.49	5.38		6.29	20.8	51.6	33.6	64.1	37.7	> 100	79	5.43	14.2	14.5
O=C1Cc2c(-c3cccs3)cc(-c3ccccc3)nc2-c2ccccc2N1		> 100	> 100	> 100	> 100	45.7	> 100	> 100	56.8	> 100	> 100	> 100	71.5	> 100	> 100	> 100	> 100	> 100	> 100	> 100
O=c1[nH]c(=S)[nH]cc1CN1CCOCC1	> 100	> 100	> 100	> 100	> 100	> 100	> 100	> 100	> 100	> 100	> 100	> 100	> 100	> 100	> 100	> 100	> 100	> 100	> 100	> 100
COC1=C(C(c2cc(OC)c(OC)c(OC)c2)c2cc3c(cc2OC)OCO3)C(=O)OC1 (centres undefined)	> 96.7	> 100	> 100	> 81.6	> 62.6	> 73.2	> 100	> 100	> 79.8	> 61	70.5	> 67.1	> 84.8	> 71.9	54.9	> 84	> 87	> 100	> 100	53.2
COC(=O)c1c(O)c(C#N)c2[nH]c3ccccc3n2c1=O	> 100	> 100		> 100	> 100	> 100	> 100	> 100	> 100	> 100	> 100	> 100	> 100	> 100	> 100	> 100	> 100	> 100	> 100	> 100
O=C1C2C3C4C1C1C2[C@H](OCc2ccccc2)C3C1[C@H]4OCc1ccccc1 (some centres undefined)	> 100	66.3	> 100	89.1	> 100	> 100	> 100	> 100	> 100	> 100	> 100	> 100	> 100	> 100	> 100	> 100	> 100	> 100	57.9	82.5

— PubChem BioAssay (NCI)
